Laboratory results as given in PMC3701070 (PLoS ONE, 2013).

Tests used:
Assay in all cases: Cell growth assay
Assay type in all cases: cell-based
[1] = tested on: HT; details: Homo sapiens, 72 h, RAF WT, RAS WT, 3-day, read-out: gIC50
Experimental: (§1) Growth was measured with CellTiter-Glo® (Promega) reagent per the manufacturer’s protocol, using a PerkinElmer EnVision™ reader at t = 0 and 72 h. IC50 values for cell growth inhibition (gIC50) were determined.
(§2) (PDF) Click here for additional data file.

[2] = tested on: HN5; details: Homo sapiens, 72 h; HN5, RAF WT, RAS WT, 3-day; read-out: gIC50
Experimental: as §1, §2

[3] = tested on: HT-29; details: Homo sapiens, 72 h; HT-29, BRAF(V600E), RAS WT, 3-day; read-out: gIC50
Experimental: as §1, §2

[4] = tested on: SCLC-3; details: Homo sapiens, 72 h; SCLC-3, RAF WT, RAS WT, 3-day; read-out: gIC50
Experimental: as §1, §2

[5] = tested on: Hs746.T; details: Homo sapiens, Hs746T, 72 h, RAF WT, RAS WT, 3-day, read-out: gIC50
Experimental: as §1, §2

[6] = tested on: ST486; details: Homo sapiens, 72 h; ST486, RAF WT, RAS WT, 3-day; read-out: gIC50
Experimental: as §1, §2

[7] = tested on: NCI-H716; details: Homo sapiens, 72 h; NCI-H716, RAF WT, RAS WT, 3-day; read-out: gIC50
Experimental: as §1, §2

[8] = tested on: SW-780; details: Homo sapiens, SW780, 72 h; SW-780, RAF WT, RAS WT, 3-day; read-out: gIC50
Experimental: as §1, §2

[9] = tested on: JM1; details: Homo sapiens, 72 h; JM1, RAF WT, RAS WT, 3-day; read-out: gIC50
Experimental: as §1, §2

[10] = tested on: NCI-H2122; details: Homo sapiens, 72 h; NCI-H2122, RAF WT, RAS WT, 3-day; read-out: gIC50
Experimental: as §1, §2

[11] = tested on: TE381.T; details: Homo sapiens, TE 381.T, 72 h, RAF WT, RAS WT, 3-day, read-out: gIC50
Experimental: as §1, §2

[12] = tested on: DU-145; details: Homo sapiens, 72 h; DU-145, RAF WT, RAS WT, 3-day; read-out: gIC50
Experimental: as §1, §2

[13] = tested on: A549; details: Homo sapiens, 72 h; A549, RAF WT, KRAS(G12S), 3-day; read-out: gIC50
Experimental: as §1, §2

[14] = tested on: NCI-H292; details: Homo sapiens, 72 h; NCI-H292, RAF WT, RAS WT, 3-day; read-out: gIC50
Experimental: as §1, §2

[15] = tested on: NCI-H146; details: Homo sapiens, 72 h; NCI-H146, RAF WT, RAS WT, 3-day; read-out: gIC50
Experimental: as §1, §2

[16] = tested on: SW1417; details: Homo sapiens, 72 h; SW1417, BRAF(V600E), RAS WT, 3-day; read-out: gIC50
Experimental: as §1, §2

[17] = tested on: CGTHW1; details: Homo sapiens, CGTH-W-1, 72 h; CGTHW1, RAF WT, RAS WT, 3-day; read-out: gIC50
Experimental: as §1, §2

[18] = tested on: UACC-812; details: Homo sapiens, 72 h; UACC-812, RAF WT, RAS WT, 3-day; read-out: gIC50
Experimental: as §1, §2

[19] = tested on: UMUC-3; details: Homo sapiens, UMUC3, 72 h; UMUC-3, RAF WT, KRAS(G12C), 3-day; read-out: gIC50
Experimental: as §1, §2

[20] = tested on: J82; details: Homo sapiens, 72 h; J82, RAF WT, RAS WT, 3-day; read-out: gIC50
Experimental: as §1, §2

[21] = tested on: UACC-62; details: Homo sapiens, 72 h; UACC-62, BRAF(V600E), RAS WT, 3-day; read-out: gIC50
Experimental: as §1, §2

[22] = tested on: NCI-H358; details: Homo sapiens, 72 h; NCI-H358, RAF WT, RAS WT, 3-day; read-out: gIC50
Experimental: as §1, §2

[23] = tested on: MCF-7; details: Homo sapiens, MCF7, 72 h; MCF-7, RAF WT, RAS WT, 3-day; read-out: gIC50
Experimental: as §1, §2

[24] = tested on: SCC-9; details: Homo sapiens, 72 h; SCC-9, RAF WT, RAS WT, 3-day; read-out: gIC50
Experimental: as §1, §2

[25] = tested on: U2OS; details: Homo sapiens, 72 h, RAF WT, RAS WT, 3-day, read-out: gIC50
Experimental: as §1, §2

[26] = tested on: A101D; details: Homo sapiens, 72 h, BRAF(V600E), RAS WT, 3-day, read-out: gIC50
Experimental: as §1, §2

[27] = tested on: Calu-6; details: Homo sapiens, 72 h; Calu-6, RAF WT, KRAS(Q61K), 3-day; read-out: gIC50
Experimental: as §1, §2

[28] = tested on: RD-ES; details: Homo sapiens, 72 h, RAF WT, RAS WT, 3-day, read-out: gIC50
Experimental: as §1, §2

[29] = tested on: LS1034; details: Homo sapiens, LS-1034, 72 h; LS1034, RAF WT, KRAS(A146T), 3-day; read-out: gIC50
Experimental: as §1, §2

[30] = tested on: HCC-2998; details: Homo sapiens, 72 h; HCC-2998, RAF WT, KRAS(A146T), 3-day; read-out: gIC50
Experimental: as §1, §2

[31] = tested on: OVCAR-4; details: Homo sapiens, 72 h; OVCAR-4, RAF WT, RAS WT, 3-day; read-out: gIC50
Experimental: as §1, §2

## CC(C)(C)c1nc(-c2cccc(NS(=O)(=O)c3c(F)cccc3F)c2F)c(-c2ccnc(N)n2)s1 [dabrafenib]
[1]
  IC50: > 10 µM
[2]
  IC50: > 10 µM
[3]
  IC50: 0.066 µM
[4]
  IC50: > 10 µM
[5]
  IC50: > 10 µM
[6]
  IC50: > 10 µM
[7]
  IC50: > 10 µM
[8]
  IC50: > 10 µM
[9]
  IC50: > 10 µM
[10]
  IC50: > 10 µM
[11]
  IC50: > 10 µM
[12]
  IC50: > 10 µM
[13]
  IC50: > 10 µM
[14]
  IC50: > 10 µM
[15]
  IC50: > 10 µM
[16]
  IC50: 0.158 µM
[17]
  IC50: > 10 µM
[18]
  IC50: > 10 µM
[19]
  IC50: > 10 µM
[20]
  IC50: > 10 µM
[21]
  IC50: 0.001 µM
[22]
  IC50: > 10 µM
[23]
  IC50: > 10 µM
[24]
  IC50: > 10 µM
[25]
  IC50: > 10 µM
[26]
  IC50: 0.009 µM
[27]
  IC50: > 10 µM
[28]
  IC50: > 10 µM
[29]
  IC50: > 10 µM
[30]
  IC50: > 10 µM
[31]
  IC50: > 10 µM
